# Assay results as given in US6630501B1, “Phosphinic pseudo-peptides that may be used as matrix zinc metalloprotease inhibitors” (Commissariat a l'energie Atomique, priority 1999, dated 2003).
# Columns and labels:
# MMP-2 (Gel-A) = molecular target: T1, MMP-2 (Gel-A) (Homo sapiens, UniProt P08253); experiment: Ki determination with fluorogenic synthetic substrates, recombinant MMP-2; format: biochemical; conditions: for Ki: Tris/50 mM HCl buffer, pH 6.8, 10 mM CaCl2, 25° C., read-out: affinity constant Ki, MMP-2 Gel-A; for inhibition at 2000 µM: @ 2 mM inhibitor, read-out: percentage of inhibition, MMP-2
# T1 construct: made in house; host or cells: E. coli
# T1 sequence (P08253 110-660): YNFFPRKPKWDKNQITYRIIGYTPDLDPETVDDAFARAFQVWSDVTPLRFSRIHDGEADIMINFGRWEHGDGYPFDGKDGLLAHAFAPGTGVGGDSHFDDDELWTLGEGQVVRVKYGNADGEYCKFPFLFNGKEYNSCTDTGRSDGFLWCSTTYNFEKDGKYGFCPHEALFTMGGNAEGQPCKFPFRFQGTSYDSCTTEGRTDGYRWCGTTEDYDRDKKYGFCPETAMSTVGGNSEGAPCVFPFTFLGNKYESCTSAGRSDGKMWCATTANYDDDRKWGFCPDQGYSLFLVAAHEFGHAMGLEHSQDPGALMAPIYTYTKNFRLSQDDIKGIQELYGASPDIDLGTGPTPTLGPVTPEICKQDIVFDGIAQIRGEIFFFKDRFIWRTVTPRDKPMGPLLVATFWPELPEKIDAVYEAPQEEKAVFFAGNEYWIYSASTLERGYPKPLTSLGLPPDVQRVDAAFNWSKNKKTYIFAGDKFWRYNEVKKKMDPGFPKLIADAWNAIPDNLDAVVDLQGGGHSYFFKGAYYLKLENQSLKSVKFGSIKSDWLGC
# Method: (§1) The MMPs used were produced in recombinant form, in an E. coli expression system, and then purified using different types of chromatographies. Apart from stromelysin-3 (MMP-11), the MMPs produces correspond to human sequences. The Stromelysin-3 used in this study corresponds to the murine form.
# (§2) The activity of each MMP was determined using two fluorogenic synthetic substrates. The cutoff of said substrates, which generates a fluorescent signal proportional to the quantity of split substrate, enables a precise determination of the kinetic parameters. The affinity constants Ki were calculated using the equation of Horowitz et al, Proc. Natl. Acad. Sci. USA, 1987, 84, p. 6654-6658 [14], accounting for the dependency of the percentage of inhibition measured experimentally according to the concentration of inhibitor, as a function of the enzyme and substrate concentration.
# (§3) The experiments for conducted in a Tris/50 mM HCl buffer, pH 6.8, 10 mM CaCl2, 25° C.
# MMP-9 (Gel-B) = molecular target: T2, MMP-9 (Gel-B) (Homo sapiens, UniProt P14780); experiment: Ki determination with fluorogenic synthetic substrates, recombinant MMP-9; format: biochemical; conditions: for Ki: Tris/50 mM HCl buffer, pH 6.8, 10 mM CaCl2, 25° C., read-out: affinity constant Ki, MMP-9 Gel-B; for inhibition at 2000 µM: @ 2 mM inhibitor, read-out: percentage of inhibition, MMP-9
# T2 construct: made in house; host or cells: E. coli
# T2 sequence (P14780 94-707): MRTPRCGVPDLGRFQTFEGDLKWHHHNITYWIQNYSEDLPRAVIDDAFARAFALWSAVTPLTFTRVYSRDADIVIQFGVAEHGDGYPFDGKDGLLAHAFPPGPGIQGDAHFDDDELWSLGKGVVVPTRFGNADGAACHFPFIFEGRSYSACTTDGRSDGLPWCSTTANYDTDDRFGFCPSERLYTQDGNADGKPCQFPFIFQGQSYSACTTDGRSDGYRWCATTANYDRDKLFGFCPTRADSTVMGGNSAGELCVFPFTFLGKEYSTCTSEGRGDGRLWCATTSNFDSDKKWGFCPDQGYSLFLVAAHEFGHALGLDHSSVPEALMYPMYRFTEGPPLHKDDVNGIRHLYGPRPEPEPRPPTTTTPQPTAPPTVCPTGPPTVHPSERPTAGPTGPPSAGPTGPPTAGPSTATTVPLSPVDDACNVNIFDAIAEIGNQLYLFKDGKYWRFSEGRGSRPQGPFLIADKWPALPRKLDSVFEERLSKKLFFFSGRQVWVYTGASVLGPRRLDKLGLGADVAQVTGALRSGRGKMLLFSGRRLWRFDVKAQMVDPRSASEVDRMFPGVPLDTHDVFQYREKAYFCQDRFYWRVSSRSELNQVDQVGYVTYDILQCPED
# Method: as §1, §2, §3
# MMP-1 (HFC) = molecular target: T3, MMP-1 (HFC) (Homo sapiens, UniProt P03956); experiment: Ki determination with fluorogenic synthetic substrates, recombinant MMP-1; format: biochemical; conditions: read-out: percentage of inhibition, MMP-1; for inhibition at 1 µM: @ 1 μM inhibitor; for inhibition at 2000 µM: @ 2 mM inhibitor
# T3 construct: made in house; host or cells: E. coli
# T3 sequence (P03956 100-469): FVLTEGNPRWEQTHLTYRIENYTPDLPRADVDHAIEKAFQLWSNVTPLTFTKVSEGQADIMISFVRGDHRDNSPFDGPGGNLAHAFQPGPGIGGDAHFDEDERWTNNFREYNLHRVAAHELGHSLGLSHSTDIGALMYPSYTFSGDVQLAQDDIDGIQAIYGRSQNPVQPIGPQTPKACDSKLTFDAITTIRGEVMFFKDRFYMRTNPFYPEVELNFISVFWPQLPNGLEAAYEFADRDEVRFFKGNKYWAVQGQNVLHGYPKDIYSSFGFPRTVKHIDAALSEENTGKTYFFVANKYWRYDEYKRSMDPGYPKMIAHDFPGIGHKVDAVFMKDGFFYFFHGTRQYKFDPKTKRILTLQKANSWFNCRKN
# Method: as §1, §2, §3
# MMP-14 (MT1-MMP) = molecular target: T4, MMP-14 (MT1-MMP) (Homo sapiens, UniProt P50281); experiment: Ki determination with fluorogenic synthetic substrates, recombinant MMP-14; format: biochemical; conditions: for Ki: Tris/50 mM HCl buffer, pH 6.8, 10 mM CaCl2, 25° C., read-out: affinity constant Ki, MMP-14 MT1-MMP
# T4 construct: made in house; host or cells: E. coli
# Method: as §1, §2, §3
# MMP-7 (Matrilysin) = molecular target: T5, MMP-7 (Matrilysin) (Homo sapiens, UniProt P09237); experiment: Ki determination with fluorogenic synthetic substrates, recombinant MMP-7; format: biochemical; conditions: for inhibition at 1 µM: @ 1 μM inhibitor, read-out: percentage of inhibition, MMP-7
# T5 construct: made in house; host or cells: E. coli
# T5 sequence (P09237 95-267): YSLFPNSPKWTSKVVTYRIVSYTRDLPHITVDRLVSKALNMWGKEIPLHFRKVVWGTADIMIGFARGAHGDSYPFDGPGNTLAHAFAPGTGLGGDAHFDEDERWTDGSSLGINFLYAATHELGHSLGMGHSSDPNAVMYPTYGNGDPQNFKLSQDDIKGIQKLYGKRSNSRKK
# Method: as §1, §2, §3
# MMP-8 (HNC) = molecular target: T6, MMP-8 (HNC) (Homo sapiens, UniProt P22894); experiment: Ki determination with fluorogenic synthetic substrates, recombinant MMP-8; format: biochemical; conditions: for Ki: Tris/50 mM HCl buffer, pH 6.8, 10 mM CaCl2, 25° C., read-out: affinity constant Ki, MMP-8 HNC
# T6 construct: made in house; host or cells: E. coli
# T6 sequence (P22894 101-467): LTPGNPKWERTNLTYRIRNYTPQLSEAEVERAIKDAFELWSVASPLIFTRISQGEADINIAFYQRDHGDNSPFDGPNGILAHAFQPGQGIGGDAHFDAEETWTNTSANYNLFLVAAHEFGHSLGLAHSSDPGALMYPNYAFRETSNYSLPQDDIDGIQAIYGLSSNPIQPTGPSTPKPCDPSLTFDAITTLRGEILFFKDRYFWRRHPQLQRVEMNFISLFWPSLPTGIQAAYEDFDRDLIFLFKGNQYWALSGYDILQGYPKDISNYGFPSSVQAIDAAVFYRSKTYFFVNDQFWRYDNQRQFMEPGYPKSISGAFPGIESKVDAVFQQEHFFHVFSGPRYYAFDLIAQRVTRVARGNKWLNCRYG
# Method: as §1, §2, §3
# [1] = molecular target: T7, MMP-11 (stromelysin-3, mST3) (Mus musculus, UniProt Q02853); experiment: Ki determination with fluorogenic synthetic substrates, recombinant MMP-11; format: biochemical, murine; conditions: for Ki: Tris/50 mM HCl buffer, pH 6.8, 10 mM CaCl2, 25° C., read-out: affinity constant Ki, MMP-11 mST3
# T7 construct: made in house; host or cells: E. coli
# T7 sequence (Q02853 102-492): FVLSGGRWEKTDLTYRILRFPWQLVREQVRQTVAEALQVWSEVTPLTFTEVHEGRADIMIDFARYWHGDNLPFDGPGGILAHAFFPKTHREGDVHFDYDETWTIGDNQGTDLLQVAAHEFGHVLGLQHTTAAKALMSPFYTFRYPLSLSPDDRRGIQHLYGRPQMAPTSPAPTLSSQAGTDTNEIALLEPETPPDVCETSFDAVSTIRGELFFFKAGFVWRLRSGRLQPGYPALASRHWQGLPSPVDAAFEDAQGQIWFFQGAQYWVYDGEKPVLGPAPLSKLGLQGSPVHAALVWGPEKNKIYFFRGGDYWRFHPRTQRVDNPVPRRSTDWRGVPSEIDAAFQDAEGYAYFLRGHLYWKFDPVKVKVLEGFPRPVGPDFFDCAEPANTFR
# Method: as §1, §2, §3
Structure (SMILES),Ki (MMP-2 (Gel-A)) [nM],Ki (MMP-9 (Gel-B)) [nM],inhibition at 1 µM (MMP-1 (HFC)) [%],Ki (MMP-14 (MT1-MMP)) [nM],Ki (MMP-8 (HNC)) [nM],Ki [1] [nM],inhibition at 2000 µM (MMP-1 (HFC)) [%],inhibition at 2000 µM (MMP-2 (Gel-A)) [%],inhibition at 2000 µM (MMP-9 (Gel-B)) [%],"inhibition at 10000 µM (MMP-14 (MT1-MMP); @ 10 mM inhibitor, read-out: percentage of inhibition, MMP-14) [%]","inhibition at 1000 µM (MMP-8 (HNC); @ 1 mM inhibitor, read-out: percentage of inhibition, MMP-8) [%]",factor by which activity on MMP-8 is multiplied when R3 changes from benzyl to phenylpropyl (MMP-8 (HNC); compound 9 in relation to compound 7),"Ki (MMP-7 (Matrilysin); Tris/50 mM HCl buffer, pH 6.8, 10 mM CaCl2, 25° C., read-out: affinity constant Ki, MMP-7 Matrilysin) [nM]","inhibitory power on MMP-11, in words [1]","inhibition at 1000 µM ([1]; @ 1 mM inhibitor, read-out: percentage of inhibition, MMP-11) [%]",inhibition at 1 µM (MMP-7 (Matrilysin)) [%]
CC(=O)NC(Cc1ccccc1)P(=O)(O)CC(CCCc1ccccc1)C(=O)NC(Cc1c[nH]c2ccccc12)C(N)=O (stereo not drawn) [Compound 25],26,35,29,90,3.5,20,–,–,–,–,–,–,–,–,–,16
CC(NC(=O)OCc1ccccc1)P(=O)(O)CC(CCc1ccccc1)C(=O)NC(Cc1c[nH]c2ccccc12)C(N)=O (stereo not drawn) [Compound 8],80,60,–,270,20,51,23,–,–,–,–,–,–,–,–,–
NC(=O)C(Cc1c[nH]c2ccccc12)NC(=O)C(COCc1ccccc1)CP(=O)(O)C(Cc1ccccc1)NC(=O)OCc1ccccc1 (stereo not drawn) [Compound 17],85,55,–,545,20,16,9,–,–,–,–,–,–,–,–,–
CC(CP(=O)(O)C(Cc1ccccc1)NC(=O)OCc1ccccc1)C(=O)NC(Cc1c[nH]c2ccccc12)C(N)=O (stereo not drawn) [Compound 12],–,–,–,–,–,2670,20,0,0,0,9,–,–,–,–,–
NC(=O)C(Cc1c[nH]c2ccccc12)NC(=O)C(CCc1ccccc1)CP(=O)(O)C(Cc1ccccc1)NC(=O)OCc1ccccc1 (stereo not drawn) [Compound 14],275,110,–,660,45,8.8,10,–,–,–,–,–,–,very powerful,–,–
CC(NC(=O)OCc1ccccc1)P(=O)(O)CC(Cc1ccccc1)C(=O)NC(Cc1c[nH]c2ccccc12)C(N)=O (stereo not drawn) [Compound 7],250,280,–,2030,240,350,24,–,–,–,–,–,–,–,–,–
CC(NC(=O)C(CCCc1ccccc1)CP(=O)(O)C(Cc1ccccc1)NC(=O)OCc1ccccc1)C(N)=O (stereo not drawn) [Compound 22],–,–,–,2960,240,–,9,31,45,–,–,–,–,–,20,–
CC(NC(=O)OCc1ccccc1)P(=O)(O)CC(COCc1ccccc1)C(=O)NC(Cc1c[nH]c2ccccc12)C(N)=O (stereo not drawn) [Compound 10],250,44,–,550,19,175,15,–,–,–,–,–,–,–,–,–

# Continued, in another order:
Ki (MMP-2 (Gel-A)) [nM],Ki (MMP-9 (Gel-B)) [nM],inhibition at 1 µM (MMP-1 (HFC)) [%],Ki (MMP-14 (MT1-MMP)) [nM],Ki (MMP-8 (HNC)) [nM],Ki [1] [nM],inhibition at 2000 µM (MMP-1 (HFC)) [%],inhibition at 2000 µM (MMP-2 (Gel-A)) [%],inhibition at 2000 µM (MMP-9 (Gel-B)) [%],"inhibition at 10000 µM (MMP-14 (MT1-MMP); @ 10 mM inhibitor, read-out: percentage of inhibition, MMP-14) [%]","inhibition at 1000 µM (MMP-8 (HNC); @ 1 mM inhibitor, read-out: percentage of inhibition, MMP-8) [%]",factor by which activity on MMP-8 is multiplied when R3 changes from benzyl to phenylpropyl (MMP-8 (HNC); compound 9 in relation to compound 7),"Ki (MMP-7 (Matrilysin); Tris/50 mM HCl buffer, pH 6.8, 10 mM CaCl2, 25° C., read-out: affinity constant Ki, MMP-7 Matrilysin) [nM]","inhibitory power on MMP-11, in words [1]","inhibition at 1000 µM ([1]; @ 1 mM inhibitor, read-out: percentage of inhibition, MMP-11) [%]",Structure (SMILES),inhibition at 1 µM (MMP-7 (Matrilysin)) [%]
17,6,33,73,4.5,15,–,–,–,–,–,–,–,–,–,NC(=O)C(Cc1c[nH]c2ccccc12)NC(=O)C(CCCc1ccccc1)CP(=O)(O)C(Cc1ccccc1)NC(=O)CNc1ccccc1 (stereo not drawn) [Compound 27],16
31,23,–,92,8,100,30,–,–,–,–,30,–,–,–,CC(NC(=O)OCc1ccccc1)P(=O)(O)CC(CCCc1ccccc1)C(=O)NC(Cc1c[nH]c2ccccc12)C(N)=O (stereo not drawn) [Compound 9],–
20,10,–,105,2.5,5,23,–,–,–,–,–,–,–,–,"NC(=O)[C@H](Cc1c[nH]c2ccccc12)NC(=O)C(CCCc1ccccc1)CP(=O)(O)C(Cc1ccccc1)NC(=O)OCc1ccccc1 (mixture of isomers) [Compound 15, ZPheΨ(PO2CpH2)pPheTrpNH2]",–
10,8,87,41,–,1.5,–,–,–,–,–,–,605,–,–,NC(=O)C(Cc1c[nH]c2ccccc12)NC(=O)C(CCCc1ccccc1)CP(=O)(O)C(Cc1ccccc1)NC(=O)c1cc2ccccc2[nH]1 (stereo not drawn) [Compound 30],–
14,6,–,26,–,36,45,–,–,–,–,–,–,–,–,CC(NC(=O)OCc1ccccc1)P(=O)(O)CC(CSCc1ccccc1)C(=O)NC(Cc1c[nH]c2ccccc12)C(N)=O (stereo not drawn) [Compound 11],–
